Measured values: ChEMBL document CHEMBL1201862, “PubChem BioAssay data set” (2004)
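Test compounds were applied to cells in 96-well plates for 48 hours at 5 doses. GI50 marks 50% less growth.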 Active and inactive are the calls of the source. Rule as the data show it: active = GI50 up to about 1.1 µM and inactive = higher.

Experiments:
Assay in all cases: growth of human tumour cells (NCI), 48 h
LOX IMVI = system: LOX IMVI
U-251 = system: U-251
ACHN = system: ACHN
786-0 = system: 786-0
RXF 393 = system: RXF 393
CCRF-CEM = system: CCRF-CEM
T47D = system: T47D
MDA-MB-231 = system: MDA-MB-231
M14 = system: M14
SW-620 = system: SW-620
CAKI-1 = system: CAKI-1
UO-31 = system: UO-31
OVCAR-8 = system: OVCAR-8
KM12 = system: KM12
NCI-H226 = system: NCI-H226
TK-10 = system: TK-10
SK-MEL-5 = system: SK-MEL-5
A549 = system: A549
NCI-H522 = system: NCI-H522
HOP-92 = system: HOP-92

Measured: GI50

COc1cc(C(=O)N(C(=S)OCc2ccccn2)c2ccccc2)cc(OC)c1OC
inactive: LOX IMVI 35 µM | U-251 > 100 µM | ACHN 42.3 µM | 786-0 77.8 µM | RXF 393 42.2 µM | CCRF-CEM 17.8 µM | T47D 34.9 µM | MDA-MB-231 78.5 µM | M14 > 100 µM | SW-620 59.7 µM | CAKI-1 44.7 µM | UO-31 25.4 µM | OVCAR-8 62.2 µM | KM12 > 100 µM | NCI-H226 26.1 µM | TK-10 70.8 µM | SK-MEL-5 35.2 µM

S=C(N1CCN(c2cccc(Cl)c2)CC1)N1CCN(c2cccc(Cl)c2)CC1
inactive: U-251 87.3 µM | A549 68.1 µM | ACHN 50.8 µM | 786-0 33.3 µM | RXF 393 36.6 µM | CCRF-CEM 5.71 µM | NCI-H522 26.9 µM | T47D 16.9 µM | MDA-MB-231 11 µM | M14 53.7 µM | SW-620 > 100 µM | CAKI-1 25.2 µM | UO-31 24 µM | OVCAR-8 > 100 µM | KM12 24.4 µM | NCI-H226 22 µM | TK-10 43.4 µM | SK-MEL-5 34.2 µM

CC(=O)c1c(-c2ccccc2)c(-c2ccc(OCCN(C)C)cc2)n2ccccc12
inactive: LOX IMVI 15.7 µM | U-251 17 µM | A549 21.2 µM | ACHN 15.8 µM | 786-0 18.3 µM | CCRF-CEM 21 µM | NCI-H522 14.1 µM | HOP-92 10.1 µM | T47D 16.7 µM | MDA-MB-231 16.9 µM | M14 16.7 µM | SW-620 17.9 µM | CAKI-1 18.5 µM | UO-31 16.7 µM | OVCAR-8 14.9 µM | KM12 13.5 µM | NCI-H226 15.2 µM | TK-10 17 µM | SK-MEL-5 10.3 µM

CC(=O)c1cccc(Nc2nc3ccc(Cl)cc3c3[nH]c4ccccc4c23)c1
inactive: U-251 2.12 µM | A549 2.24 µM | ACHN 4.11 µM | 786-0 1.85 µM | CCRF-CEM 27.4 µM | NCI-H522 2.8 µM | HOP-92 3.48 µM | T47D 6.52 µM | MDA-MB-231 11.6 µM | M14 11 µM | SW-620 4.35 µM | CAKI-1 3.03 µM | UO-31 6.07 µM | OVCAR-8 5.12 µM | KM12 4.94 µM | TK-10 4.81 µM | SK-MEL-5 1.44 µM

CC(C)[C@H]1NC(=O)[C@H]2N=C(O[C@@H]2C)[C@@H]2CCCN2C(=O)[C@H](Cc2ccccc2)NC(=O)[C@@H]2CSC(=N2)[C@@H](Cc2ccccc2)NC(=O)[C@@H]2CSC1=N2
inactive: LOX IMVI 75.3 µM | U-251 > 100 µM | A549 84.5 µM | ACHN > 100 µM | 786-0 > 100 µM | RXF 393 61.4 µM | CCRF-CEM > 100 µM | NCI-H522 58.2 µM | T47D > 100 µM | MDA-MB-231 > 100 µM | M14 > 100 µM | SW-620 86.5 µM | CAKI-1 > 100 µM | UO-31 59.8 µM | OVCAR-8 > 100 µM | KM12 88.1 µM | NCI-H226 > 100 µM | TK-10 > 100 µM | SK-MEL-5 95.9 µM

COC(=O)C1=Nc2c(C)nn(-c3ccccc3)c2N=C(c2ccccc2)C1
inactive: LOX IMVI > 10 µM | U-251 > 10 µM | A549 > 10 µM | ACHN > 10 µM | 786-0 > 10 µM | NCI-H522 > 10 µM | HOP-92 > 10 µM | T47D > 10 µM | MDA-MB-231 > 10 µM | M14 > 10 µM | SW-620 > 10 µM | CAKI-1 > 10 µM | OVCAR-8 > 10 µM | KM12 > 10 µM | TK-10 > 10 µM | SK-MEL-5 > 10 µM

CC(=O)OC1C(Oc2c(C)cc3c(c2O)[C@@H](C)CC[C@@H]3[C@@H](C)CCC=C(C)C)OCC(O)C1O (stereo partly drawn)
inactive: LOX IMVI 18.2 µM | U-251 17.3 µM | A549 14.8 µM | ACHN 20.2 µM | 786-0 18.4 µM | CCRF-CEM 22.8 µM | NCI-H522 21.2 µM | T47D 22.4 µM | MDA-MB-231 19.8 µM | M14 16.9 µM | SW-620 18.7 µM | CAKI-1 19.5 µM | UO-31 17.3 µM | OVCAR-8 21.9 µM | KM12 15.9 µM | NCI-H226 17.6 µM | SK-MEL-5 18.1 µM

N#Cc1c(N)nc(S)c(C#N)c1-c1ccccc1
inactive: LOX IMVI > 100 µM | U-251 > 100 µM | A549 > 100 µM | ACHN > 100 µM | 786-0 > 100 µM | RXF 393 > 100 µM | CCRF-CEM > 100 µM | NCI-H522 47.3 µM | T47D > 100 µM | MDA-MB-231 > 100 µM | SW-620 > 100 µM | CAKI-1 88.1 µM | UO-31 52.8 µM | OVCAR-8 > 100 µM | KM12 > 100 µM | NCI-H226 > 100 µM | TK-10 > 100 µM | SK-MEL-5 > 100 µM

Cc1cc(=O)oc2c(C)c3oc(CBr)cc3cc12
inactive: LOX IMVI 15.3 µM | U-251 19.8 µM | A549 17.3 µM | ACHN 15.8 µM | 786-0 16.3 µM | CCRF-CEM 14.4 µM | NCI-H522 15.2 µM | T47D 17.3 µM | MDA-MB-231 29.4 µM | M14 18.2 µM | SW-620 13.5 µM | CAKI-1 17.5 µM | UO-31 15.9 µM | OVCAR-8 23.8 µM | KM12 19.1 µM | NCI-H226 15.5 µM | TK-10 19.9 µM | SK-MEL-5 13.2 µM

CO[C@H]1SC[C@H](OC(C)=O)[C@H](OC(C)=O)[C@H]1OC(C)=O
inactive: LOX IMVI > 100 µM | U-251 > 100 µM | A549 > 100 µM | ACHN > 100 µM | 786-0 > 100 µM | CCRF-CEM > 100 µM | NCI-H522 > 100 µM | T47D > 100 µM | MDA-MB-231 > 100 µM | M14 > 100 µM | SW-620 > 100 µM | CAKI-1 > 100 µM | UO-31 > 100 µM | OVCAR-8 > 100 µM | KM12 > 100 µM | NCI-H226 > 100 µM | TK-10 > 100 µM | SK-MEL-5 > 100 µM

N#Cc1c(N2CCOCC2)ncn(-c2ccc(Cl)cc2)c1=O
inactive: LOX IMVI > 100 µM | U-251 > 100 µM | A549 > 100 µM | ACHN > 100 µM | 786-0 > 100 µM | CCRF-CEM > 100 µM | HOP-92 > 100 µM | T47D > 100 µM | M14 > 100 µM | SW-620 > 100 µM | CAKI-1 > 100 µM | UO-31 > 100 µM | OVCAR-8 > 100 µM | KM12 > 100 µM | NCI-H226 > 100 µM | SK-MEL-5 > 100 µM
